According to US6407115B1, “Hexa-cyclic compound” (Daiichi Pharmaceutical Co., Ltd., priority 1991, dated 2002):

melting point	Compound
210 to 230 °C (dec.)	CC[C@@]1(O)C(=O)OCc2c1cc1n(c2=O)Cc2c-1nc1ccc(C)c3c1c2CCN3CCN.Cl
285 to 290 °C (dec.)	CC[C@@]1(O)C(=O)OCc2c1cc1n(c2=O)Cc2c-1nc1ccc(C)c3c1c2CCC3N1C(=O)c2ccccc2C1=O (stereo partly shown)
190 to 200 °C (dec.)	CC[C@@]1(O)C(=O)OCc2c1cc1n(c2=O)Cc2c-1nc1cccc3c1c2CC(S(=O)(=O)O)C3 (stereo partly shown)
155 to 165 °C (dec.)	CC[C@@]1(O)C(=O)OCc2c1cc1n(c2=O)Cc2c-1nc1ccc(C)c3c1c2CCN3CCNC(C)=O

Further lines, the compound ahead of its results:

Compound	melting point
CC[C@@]1(O)C(=O)OCc2c1cc1n(c2=O)Cc2c-1nc1ccc(C)c3c1c2C(NC(C)=O)CN3 (stereo partly shown)	225 to 235 °C
CC[C@@]1(O)C(=O)OCc2c1cc1n(c2=O)Cc2c-1nc1ccc(Cl)c3c1c2C(NC(C)=O)CN3 (stereo partly shown)	250 to 270 °C
CC[C@@]1(O)C(=O)OCc2c1cc1n(c2=O)Cc2c-1nc1cccc3c1c2C(NC(C)=O)CCC3 (stereo partly shown)	203 to 206 °C (dec.)
